These results are taken from US20240409534A1, “CRYSTAL FORM OF METHYLPYRAZOLE-SUBSTITUTED PYRIDOIMIDAZOLE COMPOUND AND PREPARATION METHOD THEREFOR” (priority 2021, published 2024).

A short description of the data set: Pharmacokinetic study in rats at 100 mpk (Experimental Embodiment 4). Format: in vivo. Particulars: male SD rats; for AUC(0-inf) / AUC(0-t) / Cmax / Tmax / half-life: Sprague-Dawley, rat, plasma, po, 100 mg/kg. As to the method:
SD rats (overnight fasting, 7 to 11 weeks old)
The compound of the present disclosure or its crystal form of 5% DMSO/10% Kolliphor HS15/85% (0.2% (v/v) Tween80 aqueous solution) at 10 mg/mL was administered by gavage to male SD rats (overnight fasting, 7 to 11 weeks old) at a dose of 100 mg/kg. At 0.25, 0.5, 1.0, 2.0, 4.0, 8.0 and 24 h after administration, approximately 0.2 mL of blood was collected from the jugular vein of the animals in all three groups, placed in an anticoagulant tube added with EDTA-K2, and centrifuged for the separation of plasma. Plasma concentrations were determined by LC-MS/MS method, and relevant pharmacokinetic parameters were calculated using WinNonlin™ Version 6.3 (Pharsight, Mountain View, CA) pharmacokinetic software with non-compartmental model linear-log trapezoidal method.

A word on the AUC(0-inf): it is total exposure, with the tail of the curve extrapolated. A high value points to more exposure. For orientation: AUC(0-t) means exposure summed from dosing to a finite time, without extrapolation to infinity. A higher AUC(0-t) goes with high exposure. What is called Cmax is the highest concentration seen after dosing. In general, Tmax refers to the time from dosing to the highest level. The term half-life denotes how long it takes for the measured level to halve. Take `CS(=O)(=O)O.Cn1cc(-c2ccn3c(-c4cc(NS(C)(=O)=O)nc(-c5ccc(F)cc5F)c4)cnc3c2)cn1`: the AUC(0-inf) stood at 179 µM·h, the AUC(0-t) is 179 µM·h, the Cmax is 22.1 µM and the time of peak concentration (Tmax) worked out at 2.5 h. In addition, the half-life is 1.85 h and the Tlast turned out to be 24.0 h.
Regarding `Cl.Cn1cc(-c2ccn3c(-c4cc(NS(C)(=O)=O)nc(-c5ccc(F)cc5F)c4)cnc3c2)cn1`, the AUC(0-inf) was 32.3 µM·h, the AUC(0-t) was determined as 32.3 µM·h, the highest level (Cmax) was 8.78 µM and the time of peak concentration (Tmax) stood at 0.5 h. The molecule further had a half-life of 2.57 h and a Tlast of 24.0 h.
As to `Cn1cc(-c2ccn3c(-c4cc(NS(C)(=O)=O)nc(-c5ccc(F)cc5F)c4)cnc3c2)cn1` [Compound represented by formula (I)], the AUC(0-inf) was 12.6 µM·h, the AUC(0-t) stood at 12.6 µM·h, the highest level (Cmax) was 3.75 µM and the time to peak (Tmax) turned out to be 0.5 h. The half-life is 2.25 h and the Tlast stood at 24.0 h.
